Results published in publication PMC10218704, “A Novel Blood–Brain Barrier-Penetrating and Vascular-Targeting Chimeric Peptide Inhibits Glioma Angiogenesis” (International Journal of Molecular Sciences, 2023).
Ends that are not written are not given here.

What was measured:
[1] = test system: HUVECs; assay: Annexin V-FITC/PI staining, flow cytometry (apoptosis); assay type: cell-based, human; details: 320 μmol/L, 24 h; for induction of apoptosis: Hoechst and Annexin V-FITC/PI staining; for total apoptotic rate (Q1-UR and Q1-LR): mean ± SD, n = 3, control (7.17 ± 1.42)%
Experimental: HUVECs were seeded into 6-well culture plates (3 × 10^5 cells/well). […] After discarding the supernatant and washing with cold PBS, the cells were fixed in 4% paraformaldehyde and stained with Hoechst 33,258 for 10 min. Then, the cells were washed with cold PBS and observed using an inverted fluorescence microscope. HUVECs were treated with different peptides (the methods were the same as the Hoechst staining). After 24 h, cells were collected by trypsin digestion and washed with PBS. Annexin V-FITC/PI staining was conducted according to the manufacturer’s instructions for the Apoptosis Detection Kit. Briefly, 195 μL of Annexin V-FITC/PI dilution buffer was added to resuspend the cells. Then, 5 μL of Annexin V-FITC and 10 μL of PI staining solutions were added and gently mixed with the cells. After incubation at room temperature in the dark for 10 min, the apoptotic cells were detected by flow cytometry.

[2] = test system: zebrafish embryo intersegmental vessel; assay: Zebrafish embryo intersegmental vessel angiogenesis; assay type: in vivo; details: 25 µmol/L; 24 h; 28 °C; fluorescence microscope; vs control; n = 3
Experimental: After a certain period, healthy, sexually mature female and male zebrafish were mated in a 1:1 ratio. After 24 h, the fertilized eggs were removed, disinfected, and washed, and then placed in embryo culture water and cultured in an incubator at 28 °C for 24 h. The fertilized eggs were washed with chain enzyme protease E solution (1 mg/mL) to remove the egg membrane on the surface and placed under a microscope to observe and select the normally developing zebrafish embryos, and then placed into a 24-well plate. […] The control group was added with the same volume of embryo culture water, and then placed in an incubator at 28 °C for 24 h. Zebrafish embryos were randomly removed from each group and observed under a fluorescence microscope. The total length of zebrafish internode vessels was calculated and counted.

[3] = test system: intracranial U87-mCherry-luc glioma; assay: In vivo anti-glioma study (bioluminescence); parameters: species or system nude mice; details: 20 mg/kg/day i.v. (tail vein), 11 days; days 4, 7, 11, 14; n = 5
Experimental: The orthotopic U87-mCherry-luc glioma-bearing nude mice were randomly assigned to 6 groups (n = 5) according to the bioluminescence intensity of glioma measured on day 4. […] The bioluminescence intensity was measured on days 4, 7, 11, and 14, respectively. Nude mice were weighed daily. On day 15, the mice were sacrificed, and the glioma-bearing brains were harvested. The brain tissues were fixed with 4.0% paraformaldehyde, embedded in paraffin, and cut into slices. The TUNEL staining and CD31 immunohistochemical staining were conducted according to standard histological procedures.

[4] = test system: VEGFR-2; assay type: binding, human; details: peptide 256 and 1000 nmol/L; VEGF-A165 0.5-8 nmol/L; CM5 chip; HBS-EP
Experimental: To determine the effect of TAT-AT7 in competition with VEGF-A165 binding to VEGFR-2 or NRP-1, the SPR assay was conducted. The whole operation was conducted on a Biacore S200 instrument. The recombinant VEGFR-2 or NRP-1 proteins were firstly immobilized on a CM5 chip by an amine-coupling reaction. VEGF-A165 ligands with gradient concentrations in the absence or presence of different peptides were then flowed over the CM5 chip. The binding of VEGF-A165 ligands to the immobilized recombinant VEGFR-2 or NRP-1 proteins led to an increase of the refractive index on the surface of the chip, which could be converted into the fluctuation of electrical signals in the response (RU). As the concentration of VEGF-A165 was higher, the response value was also higher. However, with the addition of different peptides, the response value decreased to different degrees (Figure 3A and Figure 4A).
(TAT), ATWLPPR (AT7), and […] (TAT-AT7) were synthesized from China Peptides Co., Ltd. (Shanghai, China). The Hoechst 33,258 staining kit, Annexin V-FITC/PI apoptosis detection kit, and BCA protein assay kit were obtained from Beyotime Biotechnology (Nantong, China). The total protein extraction kit was from BestBio (Shanghai, China). The CM5 sensor chip was obtained from GE Healthcare Life Sciences (Uppsala, Sweden). Purified recombinant human VEGFR-2 and NRP-1 receptor proteins were purchased from R&D Systems (Minneapolis, MN, USA). Recombinant human endothelial growth factor-A165 (VEGF-A165) was obtained from PeproTech (Rocky Hill, NJ, USA). Anti-ERK1/2, anti-p-ERK1/2, anti-p-VEGFR-2, anti-AKT, anti-p-AKT, anti-p-SRC, anti-p-FAK, anti-p38 MAPK, anti-p-p38 MAPK, anti-p-PLC-γ, and anti-GAPDH antibodies were purchased from Cell Signaling Technology (Danvers, MA, USA). Anti-VEGFR-2, anti-FAK, and anti-SRC were purchased from Proteintech Group, Inc (Wuhan, China). F-12K medium, heparin, and endothelial cell growth supplement (ECGS) were from Macgene (Beijing, China). DMEM medium and fetal bovine serum (FBS) were obtained from Gibco®, Life Technologies (Carlsbad, CA, USA). […]

[5] = test system: VEGF-induced rabbit corneal angiogenesis; details: cited from earlier work
Text: Most peptides and proteins are usually functional and efficacious signaling molecules that naturally exist or are synthesized by artificial methods. Compared with proteins, peptides have higher tissue permeability, protease hydrolysis tolerability, and lower production costs. Furthermore, the pharmacological functions of peptides are easier to be improved by modification strategies, whereas their intrinsic properties are rarely affected. […] ATWLPPR (AT7), which was identified by a mutated phage lib ...

[6] = test system: NRP-1; details: for inhibition of binding of VEGF-A165 and NRP-1: peptide 1000 nmol/L
Experimental: The SPR assay was performed using the Biacore S200 instrument (GE Healthcare, Uppsala, Sweden). Firstly, the CM5 sensor chip was activated with EDC/NHS. Then, the recombinant VEGFR-2 and NRP-1 proteins were immobilized on the surface of the sensor chip according to the operating instructions of amine coupling. VEGF-A165 was diluted to 8, 4, 2, 1, and 0.5 nmol/L in different concentrations of peptide solution dissolved by HBS-EP buffer (0, 0.016, 0.064, 0.256, and 1 μmol/L, respectively). The Kinetics/Affinity program was selected, and the automatic continuous injection program was set. The injection flow rate was 30 μL/min, the injection time was 120 s, and the dissociation time was 220 s. At the same time, zero-concentration injection wells and 0.5 nmol/L repeat-concentration injection wells of VEGF-A165 were set. At the end of each injection, the channels were flushed with glycine-HCl solution for 30 s until response values were returned to baseline.

[7] = VEGF-A165 0.5-8 nmol/L, CM5 chip, HBS-EP

ATWLPPR [AT7, ATWLPPR]
induction of apoptosis [1]: no obvious effect of promoting apoptosis
total apoptotic rate (Q1-UR and Q1-LR) [1]: 7.80 ± 1.50%
intersegmental vascular growth [2]: no obvious effect on intersegmental vascular growth
glioma growth (bioluminescence) [3]: no significant difference compared to the control group
effect on VEGF-A165 and VEGFR-2 binding (RU) [4]: less inhibitory effects on VEGF-A165 and VEGFR-2 binding than TAT-AT7
effect on VEGF-induced rabbit corneal angiogenesis [5]: inhibitory effect on VEGF-induced rabbit corneal angiogenesis
inhibition of binding of VEGF-A165 and NRP-1 [6, 7]: displayed inhibitory effects on the binding of VEGF-A165 and NRP-1, but it did not completely inhibit the binding

CC(C)C[C@H](NC(=O)[C@H](Cc1c[nH]c2ccccc12)NC(=O)[C@@H](NC(=O)[C@H](C)NC(=O)[C@H](CS)NC(=O)[C@H](CCCNC(=N)N)NC(=O)[C@H](CCCNC(=N)N)NC(=O)[C@H](CCCNC(=N)N)NC(=O)[C@H](CCC(N)=O)NC(=O)[C@H](CCCNC(=N)N)NC(=O)[C@H](CCCNC(=N)N)NC(=O)[C@H](CCCCN)NC(=O)[C@H](CCCCN)NC(=O)[C@@H](N)CCCNC(=N)N)[C@@H](C)O)C(=O)N1CCC[C@H]1C(=O)N1CCC[C@H]1C(=O)N[C@@H](CCCNC(=N)N)C(=O)O [TAT-AT7]
induction of apoptosis [1]: strongly induced HUVECs’ apoptosis
total apoptotic rate (Q1-UR and Q1-LR) [1]: 29.56 ± 3.07%
intersegmental vascular growth [2]: significantly inhibit the generation of the zebrafish embryo intersegmental vessel
glioma growth (bioluminescence) [3]: significantly suppressed glioma growth on days 11 and 14
effect on VEGF-A165 and VEGFR-2 binding (RU) [4]: significantly reduced the RU value
inhibition of VEGF-A165 binding to NRP-1 relative to VEGFR-2 ([6]; SPR, NRP-1 compared with VEGFR-2): stronger inhibitory effect on the binding of VEGF-A165 to NRP-1
inhibitory effect on VEGF-A165/NRP-1 binding, comparison between peptides [6, 7]: much higher than that of AT7 and TAT
binding curve of VEGF-A165 and NRP-1 ([6]; peptide 256 nmol/L, VEGF-A165 0.5-8 nmol/L, CM5 chip, HBS-EP): tended to be a zero baseline
inhibition of binding of VEGF-A165 and NRP-1 [6, 7]: completely inhibited the binding of VEGF-A165 and NRP-1
